Source: paper PMC5187537, “Antioxidant Activity of Oat Proteins Derived Peptides in Stressed Hepatic HepG2 Cells” (Antioxidants, 2016)
Peptide text beside a SMILES is read from it.

Assays:
[1] = Oxygen radical absorbance capacity (ORAC) assay; settings: fluorescein 0.08 µM, AAPH 150 mM, 37 °C, 50 min, potassium phosphate buffer pH 7.4 75 mM, peptides 100 and 200 µM; triplicate, mean ± STDEV
Protocol: The ORAC assay was performed as previously described. The decay of fluorescein (0.08 µM) by AAPH (150 mM) at 37 °C was recorded at 1 min intervals over 50 min using a BioTek™ FL × 800™ fluorescent microplate reader (Fisher Scientific, Nepean, ON, Canada) with fluorescence filters (excitation 485/20 nm, emission 528/20 nm). Potassium phosphate buffer (pH 7.4, 75 mM) was used to dissolve peptides (100 and 200 µM) and Trolox standards (6.25–100 µM). Data analysis was done with Gen5^TM software (Fisher Scientific, Nepean, ON, Canada), and ORAC values were expressed as µM Trolox Equivalent (TE)/µM peptide using the standard curve.

[2] = system: intracellular ROS of HepG2 cells; experiment: Intracellular reactive oxygen species, DCFH2-DA assay; assay type: cell-based, Human; settings: 100 µM peptide 24 h, then 20 mM AAPH 24 h, 40 µM DCFH2-DA, fluorescence 60 min
Protocol: The measurement of intracellular ROS was determined using a method described by Wolfe and Rui, with modifications. HepG2 cells were seeded at 4 × 10^4 cells/well in a 96-well tissue culture plate and were treated for 24 h with 100 µM of peptide dissolved in media, with the exception of NC and PC controls. Media was removed, cells washed twice with PBS, incubated (24 h) with 20 mM AAPH and washed again with PBS. Two hundred µL of 40 µM DCFH2-DA dissolved in buffer was added, and fluorescent intensity was immediately recorded at 2 min intervals for a total of 60 min. The percentage increase in fluorescent intensity was calculated as shown in Equation (1). (1) Fluorescent increase (%)=Final reading−Initial reading/Initial reading×100

[3] = system: glutathione (GSH) of HepG2 cells; experiment: Cellular glutathione, enzymatic recycling method; assay type: cell-based, Human; settings: 100 µM peptide 24 h, then AAPH 24 h, p < 0.05
Protocol: (§1) Cells were seeded at 1 × 10^6 cells/plate in 60 mm tissue culture plates and allowed to grow for 24 h. In each plate, cells were washed twice with 4 mL of PBS (pH 7.2), and treated with 4 mL peptide samples (P1, P2, P6, P7) dissolved in culture media at 50 or 100 µM for 24 h. After removal of peptide solutions, cells were washed twice with 4 mL of PBS/plate and treated with 4 mL of […] dissolved in culture media and allowed to incubate for 24 h. Cells in each culture plate were harvested by incubation (5 min) with 0.5 mL of 0.25% trypsin, addition of 1 mL of culture media and centrifugation at 1000× g for 5 min. Cell pellets were washed with ice cold PBS (500 µL each) until no pink color was observed, re-suspended in ice cold PBS (300 µL) for the superoxide dismutase (SOD) assay, 500 µL for glutathione peroxidase (GPx) and catalase (CAT) assays. For total glutathione assay, 300 µL of 5% ice cold sulfosalicylic acid bubbled with 100% nitrogen was used for cell lysis. Cells were lysed by sonication on ice for 1 min using a probe-type sonicator (Vibra-Cell, Sonics and Materials Inc., Newtown, CT, USA) pulsing at 15 s on and 10 s off cycles. Following centrifugation of cell lysate at 13,000× g (4 °C), pellets containing cell debris were discarded, while supernatants were used for determination of glutathione content. Protein contents were determined using a modified Lowry assay.
The assay was based on the enzymatic recycling method adjusted for 96-well plates. All solutions were prepared in sodium phosphate buffer (125 mM, pH 7.5) that contained 6.3 mM EDTA (ethylenediaminetetraacetic acid). In summary, 60 µL of 0.35 mM NADPH and 10 µL of 6 mM DTNB were added to wells, this was followed by the addition of 20 µL cell lysate or glutathione (GSH) standard. To initiate the reaction, 10 µL of glutathione reductase (5 IU/mL) was added and the rate of reaction between GSH from cell lysate and DTNB was measured at 412 nm. Total glutathione of cell lysates was calculated based on a standard curve of glutathione.

[4] = system: superoxide dismutase (SOD); experiment: Superoxide dismutase activity of lysates of AAPH-stressed cells; assay type: cell-based, Human; settings: 50 and 100 µM peptide 24 h, then AAPH 24 h
Protocol: as §1
The SOD activity was measured based on the rate of reduction of nitroblue tetrazolium (2.24 mM) to formazan by xanthine oxidase (13.2 U/mL) at 560 nm. Eight concentrations of each cell extract ([…] protein/mL) or SOD standard (2–500 ng/mL) were used to obtain inhibition curves. Specifically, 20 µL of cell sample, or buffer (blank) was mixed with 160 µL of assay solution, and 20 µL of xanthine oxidase was added to initiate the reaction. The reduction of nitroblue tetrazolium to blue formazan by O2^−• generated in situ was followed at 560 nm. SOD activities were calculated and expressed as units per milligram of protein.

[5] = system: glutathione peroxidase (GPx); experiment: Glutathione peroxidase activity of lysates of AAPH-stressed cells; assay type: cell-based, Human; settings: then AAPH 24 h; for Effect on GPx activity of AAPH-stressed cells: 50 µM peptide 24 h; for Increase of GPx activity above that of normal cells: 100 µM peptide 24 h, p < 0.05
Protocol: as §1
The activity of GPx was determined as previously described in a 96-well plate. Briefly, in each well, 187.5 µL of potassium phosphate buffer was mixed with 12.5 µL NADPH (4 mM) solution and 25 µL of cell lysates or buffer (blank), and incubated at 30 °C for 5 min. Then, 100 µL of 0.15% cumene hydroperoxide was added in each well to begin the reaction. The rate of disappearance of NADPH was followed at 340 nm for 5 min. The activity was expressed as Units of GPx activity/mg protein.

| Compound | ORAC value (peroxyl radical scavenging activity) [1] | Intracellular reactive oxygen species [2] | GSH concentration relative to normal cells [3] | Effect on SOD activity compared to AAPH treated cells only (PC) [4] | Effect on GPx activity of AAPH-stressed cells [5] | Increase of GPx activity above that of normal cells [5] [%] |
| --- | --- | --- | --- | --- | --- | --- |
| CC[C@H](C)[C@H](NC(=O)[C@H](Cc1ccc(O)cc1)NC(=O)[C@@H](NC(=O)[C@H](CC(C)C)NC(=O)CN)C(C)C)C(=O)N[C@@H](CC(C)C)C(=O)O [P2] (H-GLVYIL-OH; N-terminus and C-terminus assumed) | 0.67 ± 0.02 µM TE/µM | reduced production of intracellular reactive oxygen species | further increased | increase SOD to a level equivalent to that of normal cells | completely restored the activity | 30.2 |
| CC[C@H](C)[C@H](NC(=O)[C@H](Cc1ccc(O)cc1)NC(=O)[C@@H](NC(=O)[C@H](CC(C)C)NC(=O)CNC(=O)[C@@H]1CCCN1C(=O)[C@H](C)NC(=O)[C@H](CC(N)=O)NC(=O)[C@H](Cc1c[nH]cn1)NC(=O)[C@@H](N)Cc1ccc(O)cc1)C(C)C)C(=O)N[C@@H](CC(C)C)C(=O)O [P6] (H-YHNAPGLVYIL-OH; N-terminus and C-terminus assumed) | 0.14–0.61 µM TE/µM | reduced production of intracellular reactive oxygen species | further increased | did not affect the activity | completely restored the activity | 38.6 |
